Reference: publication PMC5384453, “A multi-functional PEGylated gold(III) compound: potent anti-cancer properties and self-assembly into nanostructures for drug co-delivery” (Chemical Science, 2016)

Columns and labels:
[1] = Hydrolysis in aqueous buffer solutions by 1H NMR; format: physicochemical; details: 24 h, 37 °C; pH 4 (1), pH 4 or 7.4 (2)
HCT116 cells [2] = experiment: Time-dependent induction of apoptosis, Caspase-3/7 Green ReadyProbes fluorescence microscopy; format: cell-based, human; details: HCT116, 2 μM, Caspase-3/7 Green Reagent
Description: B from 20.1 to 25 min and returned to initial conditions and equilibrated for 3 minutes.
The flow rate was 0.4 mL/min and the injection volume was 2 µL. The UPLC-QTOF-MS chromatograms of 1, 3, 4 and solvent control in acetonitrile were also recorded for the interpretation of UPLC-QTOF-MS chromatograms of the cell lysate.
Cellular uptake experiments. HCT116, A2780 and A2780adr (2×10 5 cells), and MIHA and NCM460 (3.5×10 5 cells) cells were grown on 6-well plates at 37 °C under an atmosphere of 5% CO2 for 48 h. The culture medium was then removed, washed with PBS solution, and incubated with culture medium containing nanostructures of 1 […]
Au1a (2 µM; with 1 vol% DMSO). At a predetermined time, the culture medium was removed and washed with PBS solution for three times. The cells were then harvested and dispersed in ice-cold water. An aliquot of the cell suspension was subjected to Bio-rad protein assay with a microtitre plate reader at the absorbance at 595 nm, using bovine serum albumin as the protein standard. […] The solution mixture was heated at 65 °C with shaking overnight, and the gold content was determined by ICP-MS. […]
then removed and washed with PBS solution. The cells were then incubated with culture medium containing nanostructures of 1 (2 µM) and CellEvent Caspase-3/7 Green ReadyProbes Reagent (30 µL), or Au1a (2 µM; with 1 vol% DMSO) and CellEvent Caspase-3/7 Green ReadyProbes Reagent (30 µL) at 37 °C under an atmosphere of 5% CO2. Fluorescence images at different time intervals were recorded by the fluorescence microscope without washing the cells. […]
once every 2–3 days. The tumor volume was calculated by the equation: Volume (mm3) = l×w2/2, where l and w were the length and width of the tumor. At the end of the treatment, the nude mice were sacrificed and the tumor weight was measured. […]
At a predetermined time, the culture medium was removed and washed with PBS solution for three times. […] An aliquot of the cell suspension was subjected to Bio-rad protein assay with a microtitre plate reader at the absorbance at 595 nm, using bovine serum albumin as the protein standard. […]

HCT116 cells [3] = experiment: Co-culture model of HCT116 and NCM460, Caspase-3/7 Green flow cytometry; format: cell-based, human; details: 24 h; for population percentage of apoptotic cells (Caspase-3/7 Green, corrected): HCT116 in co-culture with CMF2HC-stained NCM460, 2 μM
Description: (§1) This co-culture model treated with 1 for 24 h had 25.04 and 5.01% (Q2 and Q3 regions of Fig. S21a ^†; corrected) of HCT116 and NCM460 cells, respectively, undergoing apoptosis as determined by Caspase-3/7 Green Reagent staining and flow cytometric analysis (Fig. S21 ^†). This confirms the preferential induction of apoptosis by 1 of HCT116 cells over NCM460 cells in the co-culture model, regardless of the effect, if any, of the blue emissive CMF2HC dye.
(§2) atmosphere of 5% CO2. After reaching 80% confluency, the culture medium was
(§3) of 5% CO2 for 45 min. The solution was then removed. The stained NCM460 cells
(§4) the procedure described above.
(§5) right fore of BALB/c nude mice. When the tumor volume reached 70 mm3 after […]

NCM460 cells = experiment: as above; format: cell-based, human; details: 24 h; for population percentage of apoptotic cells (Caspase-3/7 Green, corrected): CMF2HC-stained NCM460 in co-culture with HCT116, 2 μM
Description: as §1, §2, §3, §4, §5

Compound | change in 1H NMR spectra after incubation in buffer [1] | incubation time at which induction of apoptosis was apparent (HCT116 cells [2]) [h] | population percentage of apoptotic cells (Caspase-3/7 Green, corrected) (HCT116 cells [3]) [%] | cells undergoing apoptosis (Caspase-3/7 Green, corrected) (HCT116 cells [3]; co-culture with HCT116 pre-treated with CMF2HC dye, HCT116 cells) [%] | population percentage of apoptotic cells (Caspase-3/7 Green, corrected) (NCM460 cells) [%] | cells undergoing apoptosis (Caspase-3/7 Green, corrected) (NCM460 cells; co-culture with HCT116 pre-treated with CMF2HC dye, NCM460 cells) [%]
[Au(TPP–COO–PEG5000–OCH3)]Cl [Compound 1] | disappearance of peaks from protons of –COOCH 2CH 2– | 15 | 25.3 | 25.04 | 4.1 | 5.01
C1=Cc2nc1c(-c1ccccc1)c1ccc([n-]1)c(-c1ccccc1)c1nc(c(-c3ccccc3)c3ccc([n-]3)c2-c2ccccc2)C=C1.[Au+3].[Cl-] [Au1a, [Au(TPP)]Cl, reference compound] | – | 12 | 54.6 | – | 29.3 | –
[Au(TPP–CONH–PEG5000–OCH3)]Cl [Compound 2] | no observable change in the NMR spectra | – | – | – | – | –
